# From PubChem BioAssay AID1259411 (Chemical Carcinogenesis Research Information System (CCRIS), 2018)
# Active and inactive are the calls of the source. How the calls were made is not given here.
# Test system: rodent carcinogenicity bioassays, tumor incidence
# Assay: CCRIS carcinogenicity studies
# Conditions: Dose: 0
# How it was run: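 Archive of carcinogenicity, mutagenicity, tumor promotion and tumor inhibition results drawn from journals, NCI reports and other sources, expert-reviewed; covers 1985-2011 and is no longer updated.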
structure (smiles),measurement,setting,value
N[C@@H](CCC(=O)N[C@@H](CSc1cc(O)c(SC[C@H](NC(=O)CC[C@H](N)C(=O)O)C(=O)NCC(=O)O)c(SC[C@H](NC(=O)CC[C@H](N)C(=O)O)C(=O)NCC(=O)O)c1O)C(=O)NCC(=O)O)C(=O)O,carcinogen call,"Species: RAT, Strain/Sex: EKER(TSC2 MUTANT)/MALE, Route: INTRAPERITIONEAL, 2.5 UMOL/KG BW 5 BW 5 D/WK FOR 4 MO FOLLOWED BY 3.5 UMOL/KG BW 5 D/WK FOR 6 MO (STUDY DURATION: 10 MO), Tumor Site: Type of Lesion: KIDNEY: ADENOMA OR CARCINOMA",active; positive
CCC(Cl)C(Cl)C(Cl)CC(Cl)C(Cl)C(C)Cl (stereo not given),carcinogen call,"Species: MOUSE, Strain/Sex: B6C3F1/FEMALE, Route: GAVAGE, 125, 250 MG/KG IN CORN OIL 5 D/WK FOR 103 WK, 125, 250 MG/KG IN CORN OIL 5 D/WK FOR 103 WK, Tumor Site: Type of Lesion: LIVER: HEPATOCELLULAR ADENOMA, HEPATOCELLULAR ADENOMA OR CARCINOMA, THYROID GLAND: FOLLICULAR CELL ADENOMA, FOLLICULAR C",active; positive
same,carcinogen call,"Species: MOUSE, Strain/Sex: B6C3F1/MALE, Route: GAVAGE, 125, 250 MG/KG IN CORN OIL 5 D/WK FOR 103 WK, 125, 250 MG/KG IN CORN OIL 5 D/WK FOR 103 WK, Tumor Site: Type of Lesion: LIVER: HEPATOCELLULAR ADENOMA, HEPATOCELLULAR ADENOMA OR CARCINOMA",active; positive
same,carcinogen call,"Species: RAT, Strain/Sex: F344/FEMALE, Route: GAVAGE, 312, 625 MG/KG IN CORN OIL 5 D/WK FOR 104 WK, 312, 625 MG/KG IN CORN OIL 5 D/WK FOR 104 WK, Tumor Site: Type of Lesion: LIVER: NEOPLASTIC NODULE, NEOPLASTIC NODULE OR HEPATOCELLULAR CARCINOMA, THYROID GLAND: FOLLICULAR CELL ADENOMA OR CARCI",active; positive
same,carcinogen call,"Species: RAT, Strain/Sex: F344/MALE, Route: GAVAGE, 312, 625 MG/KG IN CORN OIL 5 D/WK FOR 104 WK, 312, 625 MG/KG IN CORN OIL 5 D/WK FOR 104 WK, Tumor Site: Type of Lesion: LIVER: NEOPLASTIC NODULE, NEOPLASTIC NODULE OR HEPATOCELLULAR CARCINOMA, KIDNEY: TUBULAR CELL ADENOMA OR ADENOCARCINOMA",active; positive
CC(O)CN(C)N=O (stereo not given),carcinogen call,"Species: HAMSTER, Strain/Sex: SYRIAN/FEMALE, Route: GAVAGE, 1 MG IN 0.2 ML WATER 1/WK FOR 21 WK FOR A TOTAL DOSE OF 21 MG (STUDY DURATION: 45 WK), Tumor Site: Type of Lesion: LIVER: HEMANGIOSARCOMA OR HEMANGIOMA, LUNG: ALVEOLAR/BRONCHIOLAR ADENOMA, NASAL MUCOSA: CARCINOMA, Tumor Site: Type of Lesion: LIVER: HEMANGIOSARCOMA OR HEMANGIOMA, LUNG: ALVEOLAR/BRONCHIOLAR ADENOMA, NASAL MUCOSA: CARCINOMA",active; positive
same,carcinogen call,"Species: HAMSTER, Strain/Sex: SYRIAN/FEMALE, Route: GAVAGE, 5 MG IN 0.2 ML WATER FOR 4 WK THEN 2 MG 1/WK FOR 14 WK FOR A TOTAL DOSE OF 48 MG (STUDY DURATION: 45 WK), Tumor Site: Type of Lesion: LIVER: HEMANGIOSARCOMA, HEPATOCELLULAR ADENOMA, CHOLANGIOCELLULAR CARCINOMA, CHOLANGIOCELLULAR ADENOMA, PANCREAS: DUCTAL",active; positive
same,carcinogen call,"Species: RAT, Strain/Sex: F344/FEMALE, Route: GAVAGE, 4, 10 MG/WK FOR A TOTAL DOSE OF 0.6, 0.4 MMOL (STUDY DURATION: 50 WK), 4, 10 MG/WK FOR A TOTAL DOSE OF 0.6, 0.4 MMOL (STUDY DURATION: 50 WK), Tumor Site: Type of Lesion: ESOPHAGUS: TUMOR, KIDNEY: TUMOR, THYROID: TUMOR, LUNG: TUMOR, Tumor Site: Type of Lesion: ESOPHAGUS: TUMOR, KIDNEY: TUMOR, THYROID: TUMOR, LUNG: TUMOR",active; positive
same,carcinogen call,"Species: RAT, Strain/Sex: F344/MALE, Route: GAVAGE, 4 MG/WK FOR A TOTAL DOSE OF 0.6 MMOL (STUDY DURATION: 50 WK), Tumor Site: Type of Lesion: ESOPHAGUS: TUMOR, NASAL MUCOSA: TUMOR",active; positive
same,carcinogen call,"Species: RAT, Strain/Sex: WISTAR/MALE, Route: INTRAPERITONEAL, 4.4, 8.8, 17.6 MG/KG IN 0.9% SALINE 1/WK FOR 12 WK (STUDY DURATION: 26 WK), 4.4, 8.8, 17.6 MG/KG IN 0.9% SALINE 1/WK FOR 12 WK (STUDY DURATION: 26 WK), Tumor Site: Type of Lesion: NASAL CAVITY: CARCINOMA, PAPILLOMA",active; positive
O[C@@H]1C=Cc2c(ccc3cc4ccccc4nc23)[C@H]1O,carcinogen call,"Species: MOUSE, Strain/Sex: SWISS/FEMALE, Route: INTRAPERITONEAL, 1.05 UMOL GIVEN AS 150 NMOL IN 5 µL DMSO WITHIN 24 HR OF BIRTH, 300 NMOL IN 10 µL DMSO ON D 8 OF LIFE, AND 600 NMOL I, Tumor Site: Type of Lesion: LUNG: ADENOMA",active; positive
same,carcinogen call,"Species: MOUSE, Strain/Sex: SWISS/MALE, Route: INTRAPERITONEAL, 1.05 UMOL GIVEN AS 150 NMOL IN 5 µL DMSO WITHIN 24 HR OF BIRTH, 300 NMOL IN 10 µL DMSO ON D 8 OF LIFE, AND 600 NMOL I, Tumor Site: Type of Lesion: LUNG: ADENOMA, LIVER: NEOPLASTIC NODULE",active; positive
O=NN1CCOC1=O,carcinogen call,"Species: HAMSTER, Strain/Sex: SYRIAN/FEMALE, Route: GAVAGE, 12 MG/ML ((0.2 ML OF A SOLUTION IN ETHYL ACETATE/CORN OIL (1:2)) 1/WK FOR 30 WK (STUDY DURATION: LIFE SPAN), Tumor Site: Type of Lesion: FORESTOMACH: SQUAMOUS CELL CARCINOMA OR ADENOMA",active; positive
same,carcinogen call,"Species: RAT, Strain/Sex: F344/FEMALE, Route: INTRAVESICULAR, 2.4 MG 2/WK FOR 8 WK (STUDY DURATION: LIFETIME), Tumor Site: Type of Lesion: BLADDER: TUMOR",active; positive
CN=NCc1ccc(C(=O)NC(C)C)cc1,carcinogen call,"Species: MOUSE, Strain/Sex: CDF1/MALE, Route: GAVAGE, 300 MG/KG IN 0.01 ML OF 0.5% AQUEOUS SOLUTION OF SODIUM CARBOXYMETHYL CELLULOSE 1/WK FOR 4 WK THEN 0, 400 MG/KG 1/WK, 300 MG/KG IN 0.01 ML OF 0.5% AQUEOUS SOLUTION OF SODIUM CARBOXYMETHYL CELLULOSE 1/WK FOR 4 WK THEN 0, 400 MG/KG 1/WK, Tumor Site: Type of Lesion: PULMONARY SYSTEM: TUMOR, KIDNEY: CYSTADENOMA",active; positive
